According to PMC5847526, “Inhibition of neuronal FLT3 receptor tyrosine kinase alleviates peripheral neuropathic pain in mice” (Nature Communications, 2018):

Assays:
PRLR-JAK2 = PRLR-JAK2 (Homo sapiens, UniProt P16471); assay: cell-based; design: PathHunter eXpress functional assay (DiscoverX tkMAX), inhibition of reference ligand response; conditions: read-out: % Inhibition of reference binding (Table 3)
TrkB-P75 = target: T1, TrkB-P75 (Homo sapiens, UniProt Q16620); assay: cell-based; design: PathHunter eXpress functional assay (DiscoverX tkMAX), inhibition of reference ligand response; conditions: read-out: % Inhibition of reference binding (Table 3)
T1 construct: gene NTRK2

ErbB2-ErbB3 = ErbB2-ErbB3 (Homo sapiens, UniProt P04626+P21860); assay: cell-based; design: PathHunter eXpress functional assay (DiscoverX tkMAX), inhibition of reference ligand response; conditions: read-out: % Inhibition of reference binding (Table 3)
TrkC-P75 = target: T2, TrkC-P75 (Homo sapiens, UniProt Q16288); assay: cell-based; design: PathHunter eXpress functional assay (DiscoverX tkMAX), inhibition of reference ligand response; conditions: read-out: % Inhibition of reference binding (Table 3)
T2 construct: gene NTRK3

PRLR-JAK1 = PRLR-JAK1 (Homo sapiens, UniProt P16471); assay: cell-based; design: PathHunter eXpress functional assay (DiscoverX tkMAX), inhibition of reference ligand response; conditions: read-out: % Inhibition of reference binding (Table 3)
[1] = target: T3, fms-like tyrosine kinase 3 receptor (FLT3) (Homo sapiens, UniProt P36888); assay: trFRET inhibition of Red-FL binding to SNAP-FLT3 on HEK293 cells; FL-induced FLT3 phosphorylation in RS4-11 cells (IC50 […]); type: cell-based
T3 construct: SNAP-FLT3 (Lumi4-Tb labelled) in HEK293 cells; endogenous FLT3 in RS4-11 cells

c-Ret-GFRα2 = c-Ret-GFRα2 (Homo sapiens, UniProt P07949); assay: cell-based; design: PathHunter eXpress functional assay (DiscoverX tkMAX), inhibition of reference ligand response; conditions: read-out: % Inhibition of reference binding (Table 3)
PDGFRa = PDGFRa (Homo sapiens, UniProt P16234); assay: cell-based; design: PathHunter eXpress functional assay (DiscoverX tkMAX), inhibition of reference ligand response; conditions: read-out: % Inhibition of reference binding (Table 3)
ErbB4 = ErbB4 (Homo sapiens, UniProt Q15303); assay: cell-based; design: PathHunter eXpress functional assay (DiscoverX tkMAX), inhibition of reference ligand response; conditions: read-out: % Inhibition of reference binding (Table 3)
DDR1 = DDR1 (Homo sapiens, UniProt Q08345); assay: cell-based; design: PathHunter eXpress functional assay (DiscoverX tkMAX), inhibition of reference ligand response; conditions: read-out: % Inhibition of reference binding (Table 3)
EphB3 = EphB3 (Homo sapiens, UniProt P54753); assay: cell-based; design: PathHunter eXpress functional assay (DiscoverX tkMAX), inhibition of reference ligand response; conditions: read-out: % Inhibition of reference binding (Table 3)
c-KIT [2] = target: T4, c-KIT (Homo sapiens, UniProt P10721); assay: cell-based; design: PathHunter eXpress functional assay (DiscoverX tkMAX), inhibition of reference ligand response; conditions: read-out: % Inhibition of reference binding (Table 3)
EphA7 = EphA7 (Homo sapiens, UniProt Q15375); assay: cell-based; design: PathHunter eXpress functional assay (DiscoverX tkMAX), inhibition of reference ligand response; conditions: read-out: % Inhibition of reference binding (Table 3)
KDR = KDR (Homo sapiens, UniProt P35968); assay: cell-based; design: PathHunter eXpress functional assay (DiscoverX tkMAX), inhibition of reference ligand response; conditions: read-out: % Inhibition of reference binding (Table 3)
PDGFRb = PDGFRb (Homo sapiens, UniProt P09619); assay: cell-based; design: PathHunter eXpress functional assay (DiscoverX tkMAX), inhibition of reference ligand response; conditions: read-out: % Inhibition of reference binding (Table 3)
FLT4 = FLT4 (Homo sapiens, UniProt P35916); assay: cell-based; design: PathHunter eXpress functional assay (DiscoverX tkMAX), inhibition of reference ligand response; conditions: read-out: % Inhibition of reference binding (Table 3)
INSRb = target: T5, INSRb (Homo sapiens, UniProt P06213); assay: cell-based; design: PathHunter eXpress functional assay (DiscoverX tkMAX), inhibition of reference ligand response; conditions: read-out: % Inhibition of reference binding (Table 3)
T5 construct: gene INSR; isoform b

ErbB1 = target: T6, ErbB1 (Homo sapiens, UniProt P00533); assay: cell-based; design: PathHunter eXpress functional assay (DiscoverX tkMAX), inhibition of reference ligand response; conditions: read-out: % Inhibition of reference binding (Table 3)
T6 construct: gene EGFR

EphA5 = EphA5 (Homo sapiens, UniProt P54756); assay: cell-based; design: PathHunter eXpress functional assay (DiscoverX tkMAX), inhibition of reference ligand response; conditions: read-out: % Inhibition of reference binding (Table 3)
IGF1R = IGF1R (Homo sapiens, UniProt P08069); assay: cell-based; design: PathHunter eXpress functional assay (DiscoverX tkMAX), inhibition of reference ligand response; conditions: read-out: % Inhibition of reference binding (Table 3)
EphB4 = EphB4 (Homo sapiens, UniProt P54760); assay: cell-based; design: PathHunter eXpress functional assay (DiscoverX tkMAX), inhibition of reference ligand response; conditions: read-out: % Inhibition of reference binding (Table 3)
EphB2 = EphB2 (Homo sapiens, UniProt P29323); assay: cell-based; design: PathHunter eXpress functional assay (DiscoverX tkMAX), inhibition of reference ligand response; conditions: read-out: % Inhibition of reference binding (Table 3)
c-KIT [3] = target: T4, c-KIT; assay: biochemical; design: ExpresS Diversity kinase profile (Eurofins Cerep P10), per cent inhibition; conditions: read-out: Inhibition of reference binding (Table 4)
Fms/CSFR kinase = target: T7, Fms/CSFR kinase (Homo sapiens, UniProt P07333); assay: biochemical; design: ExpresS Diversity kinase profile (Eurofins Cerep P10), per cent inhibition; conditions: read-out: Inhibition of reference binding (Table 4)
T7 construct: gene CSF1R

TrkA-P75 = target: T8, TrkA-P75 (Homo sapiens, UniProt P04629); assay: cell-based; design: PathHunter eXpress functional assay (DiscoverX tkMAX), inhibition of reference ligand response; conditions: read-out: % Inhibition of reference binding (Table 3)
T8 construct: gene NTRK1

[4] = target: Interleukin-1 receptor-associated kinase 4 (IRAK4) (Homo sapiens, UniProt Q9NWZ3); assay: kinase selectivity panel, inhibition of staurosporine binding at a single concentration ([…])
Sequence of Interleukin-1 receptor-associated kinase 4 (IRAK4) (Q9NWZ3 whole entry): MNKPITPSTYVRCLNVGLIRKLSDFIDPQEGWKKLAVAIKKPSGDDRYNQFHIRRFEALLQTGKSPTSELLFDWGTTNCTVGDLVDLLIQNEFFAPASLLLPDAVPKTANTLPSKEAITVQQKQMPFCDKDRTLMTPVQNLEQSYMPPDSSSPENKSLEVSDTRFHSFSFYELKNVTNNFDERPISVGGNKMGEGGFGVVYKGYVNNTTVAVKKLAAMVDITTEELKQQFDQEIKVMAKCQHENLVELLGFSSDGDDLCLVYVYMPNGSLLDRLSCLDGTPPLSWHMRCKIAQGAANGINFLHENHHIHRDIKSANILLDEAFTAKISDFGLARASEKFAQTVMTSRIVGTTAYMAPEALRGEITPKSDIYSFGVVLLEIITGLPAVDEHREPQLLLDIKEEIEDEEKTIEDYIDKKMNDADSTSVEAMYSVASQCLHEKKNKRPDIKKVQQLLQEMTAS

T4 sequence (P10721 whole entry): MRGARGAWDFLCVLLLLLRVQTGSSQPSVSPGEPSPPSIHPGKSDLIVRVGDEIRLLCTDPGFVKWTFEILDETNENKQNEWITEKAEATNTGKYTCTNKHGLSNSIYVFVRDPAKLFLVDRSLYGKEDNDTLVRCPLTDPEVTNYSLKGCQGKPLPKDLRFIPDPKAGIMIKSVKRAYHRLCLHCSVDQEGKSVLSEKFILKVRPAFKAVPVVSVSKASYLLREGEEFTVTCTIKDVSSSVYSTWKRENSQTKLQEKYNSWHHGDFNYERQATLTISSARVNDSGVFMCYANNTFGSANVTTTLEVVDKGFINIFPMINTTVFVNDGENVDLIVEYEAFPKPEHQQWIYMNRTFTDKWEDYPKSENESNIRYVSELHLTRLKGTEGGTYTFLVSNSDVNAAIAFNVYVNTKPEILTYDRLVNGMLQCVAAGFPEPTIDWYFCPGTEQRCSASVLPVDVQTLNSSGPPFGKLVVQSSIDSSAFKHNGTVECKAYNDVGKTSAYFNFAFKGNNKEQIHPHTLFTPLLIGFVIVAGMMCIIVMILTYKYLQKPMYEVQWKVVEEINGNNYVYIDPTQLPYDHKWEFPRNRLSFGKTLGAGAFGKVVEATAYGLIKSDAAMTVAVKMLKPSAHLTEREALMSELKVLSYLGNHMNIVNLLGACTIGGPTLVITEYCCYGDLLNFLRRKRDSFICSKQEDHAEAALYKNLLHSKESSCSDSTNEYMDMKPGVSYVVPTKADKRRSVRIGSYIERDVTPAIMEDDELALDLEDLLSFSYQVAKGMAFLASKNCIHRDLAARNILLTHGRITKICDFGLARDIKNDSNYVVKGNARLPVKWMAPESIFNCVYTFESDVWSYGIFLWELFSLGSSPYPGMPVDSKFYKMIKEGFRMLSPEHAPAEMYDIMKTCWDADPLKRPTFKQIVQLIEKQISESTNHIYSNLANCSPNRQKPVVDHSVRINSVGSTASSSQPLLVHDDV
Sequence of PDGFRb (P09619 whole entry): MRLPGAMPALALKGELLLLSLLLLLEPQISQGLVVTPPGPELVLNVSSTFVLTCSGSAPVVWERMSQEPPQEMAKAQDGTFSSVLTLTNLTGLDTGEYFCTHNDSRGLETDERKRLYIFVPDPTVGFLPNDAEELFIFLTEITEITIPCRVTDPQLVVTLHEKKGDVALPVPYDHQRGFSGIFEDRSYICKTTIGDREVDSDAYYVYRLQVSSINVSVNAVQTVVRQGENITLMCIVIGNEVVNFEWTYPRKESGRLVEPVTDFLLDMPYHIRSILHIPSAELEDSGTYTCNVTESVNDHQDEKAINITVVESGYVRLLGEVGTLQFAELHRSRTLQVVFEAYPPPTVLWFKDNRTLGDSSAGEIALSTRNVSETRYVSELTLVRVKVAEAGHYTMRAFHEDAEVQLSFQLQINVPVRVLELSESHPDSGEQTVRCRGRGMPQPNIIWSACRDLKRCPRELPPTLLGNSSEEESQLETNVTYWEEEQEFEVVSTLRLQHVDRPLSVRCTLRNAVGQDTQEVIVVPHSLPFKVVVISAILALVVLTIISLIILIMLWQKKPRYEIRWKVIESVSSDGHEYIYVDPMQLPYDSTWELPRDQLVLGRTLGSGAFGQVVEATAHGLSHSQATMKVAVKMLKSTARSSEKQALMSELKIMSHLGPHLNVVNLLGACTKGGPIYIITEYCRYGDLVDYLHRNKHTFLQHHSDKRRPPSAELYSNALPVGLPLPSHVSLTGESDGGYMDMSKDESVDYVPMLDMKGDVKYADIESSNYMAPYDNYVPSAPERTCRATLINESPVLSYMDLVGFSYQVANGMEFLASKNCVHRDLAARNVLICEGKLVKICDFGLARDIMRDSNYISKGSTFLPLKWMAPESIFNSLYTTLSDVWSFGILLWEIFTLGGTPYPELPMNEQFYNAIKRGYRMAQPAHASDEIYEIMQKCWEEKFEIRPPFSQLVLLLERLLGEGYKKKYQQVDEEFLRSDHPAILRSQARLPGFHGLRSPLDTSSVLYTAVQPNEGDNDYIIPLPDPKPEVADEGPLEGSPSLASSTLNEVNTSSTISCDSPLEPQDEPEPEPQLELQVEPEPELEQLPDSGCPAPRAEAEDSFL
Sequence of EphB2 (P29323 whole entry): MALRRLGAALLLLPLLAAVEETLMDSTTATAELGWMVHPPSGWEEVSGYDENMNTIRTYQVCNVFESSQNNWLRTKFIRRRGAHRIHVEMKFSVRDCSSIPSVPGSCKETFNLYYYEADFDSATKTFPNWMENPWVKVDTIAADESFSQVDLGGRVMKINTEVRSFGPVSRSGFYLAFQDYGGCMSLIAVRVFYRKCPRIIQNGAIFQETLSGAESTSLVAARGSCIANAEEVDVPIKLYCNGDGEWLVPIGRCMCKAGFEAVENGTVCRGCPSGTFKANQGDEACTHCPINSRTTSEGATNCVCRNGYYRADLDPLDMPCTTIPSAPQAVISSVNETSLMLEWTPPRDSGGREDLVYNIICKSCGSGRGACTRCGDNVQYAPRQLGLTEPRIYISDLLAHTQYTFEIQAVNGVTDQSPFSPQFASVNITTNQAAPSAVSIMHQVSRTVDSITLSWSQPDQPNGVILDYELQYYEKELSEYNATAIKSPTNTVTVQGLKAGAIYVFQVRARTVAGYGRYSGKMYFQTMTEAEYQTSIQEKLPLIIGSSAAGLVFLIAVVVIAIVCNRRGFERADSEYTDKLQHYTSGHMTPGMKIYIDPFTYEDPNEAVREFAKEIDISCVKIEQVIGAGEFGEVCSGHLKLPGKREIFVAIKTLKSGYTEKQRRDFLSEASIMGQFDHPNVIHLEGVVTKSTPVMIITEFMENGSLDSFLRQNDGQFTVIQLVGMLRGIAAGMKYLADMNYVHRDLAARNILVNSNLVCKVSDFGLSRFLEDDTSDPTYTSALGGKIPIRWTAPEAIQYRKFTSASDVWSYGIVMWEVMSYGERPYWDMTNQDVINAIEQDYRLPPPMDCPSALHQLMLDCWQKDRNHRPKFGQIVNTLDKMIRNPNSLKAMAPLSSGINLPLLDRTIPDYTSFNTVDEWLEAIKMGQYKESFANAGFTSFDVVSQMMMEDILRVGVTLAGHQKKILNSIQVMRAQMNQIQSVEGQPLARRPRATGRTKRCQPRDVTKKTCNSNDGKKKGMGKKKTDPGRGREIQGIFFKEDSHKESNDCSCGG
Sequence of EphA5 (P54756 whole entry): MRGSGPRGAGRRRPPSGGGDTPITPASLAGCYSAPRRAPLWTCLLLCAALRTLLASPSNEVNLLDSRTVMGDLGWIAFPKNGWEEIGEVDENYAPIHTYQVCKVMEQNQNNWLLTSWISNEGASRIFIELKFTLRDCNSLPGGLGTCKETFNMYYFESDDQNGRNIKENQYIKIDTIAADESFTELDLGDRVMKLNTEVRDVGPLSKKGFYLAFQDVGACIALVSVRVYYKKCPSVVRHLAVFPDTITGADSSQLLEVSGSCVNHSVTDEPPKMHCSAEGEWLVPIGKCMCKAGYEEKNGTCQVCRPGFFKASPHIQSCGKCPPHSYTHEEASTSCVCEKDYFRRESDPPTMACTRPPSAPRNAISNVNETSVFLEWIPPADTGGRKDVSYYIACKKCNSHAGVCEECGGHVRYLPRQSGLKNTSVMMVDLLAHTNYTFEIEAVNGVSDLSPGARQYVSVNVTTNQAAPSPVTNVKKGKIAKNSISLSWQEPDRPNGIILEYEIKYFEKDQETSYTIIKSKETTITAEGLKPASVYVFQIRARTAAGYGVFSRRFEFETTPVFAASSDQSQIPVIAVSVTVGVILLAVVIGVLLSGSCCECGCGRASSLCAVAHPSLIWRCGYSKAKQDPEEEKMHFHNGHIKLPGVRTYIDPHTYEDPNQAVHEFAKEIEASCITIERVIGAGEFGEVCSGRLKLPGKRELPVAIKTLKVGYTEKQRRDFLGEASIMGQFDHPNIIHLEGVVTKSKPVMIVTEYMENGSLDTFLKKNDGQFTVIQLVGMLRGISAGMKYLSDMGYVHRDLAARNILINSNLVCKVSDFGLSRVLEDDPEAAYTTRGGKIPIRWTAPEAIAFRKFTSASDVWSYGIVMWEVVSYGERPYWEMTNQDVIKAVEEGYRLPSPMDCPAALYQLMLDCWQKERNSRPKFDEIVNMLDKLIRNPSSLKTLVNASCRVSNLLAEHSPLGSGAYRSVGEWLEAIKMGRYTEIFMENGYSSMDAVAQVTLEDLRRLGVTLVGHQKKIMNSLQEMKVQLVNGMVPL

SMILES: O=C(Nc1cc(Cl)ccc1O)c1cccc(S(=O)(=O)N2CCCCC2)c1 [compound 66, BDT001]
- inhibition at 10 µM (PRLR-JAK2): 1.9%
- inhibition at 10 µM (TrkB-P75): -1.3%
- inhibition at 10 µM (ErbB2-ErbB3): 13.6%
- inhibition at 10 µM (TrkC-P75): 0.6%
- inhibition at 10 µM (PRLR-JAK1): 6.1%
- IC50 [1]: 11 µM
- inhibition at 10 µM (c-Ret-GFRα2): -4.1%
- inhibition at 10 µM (PDGFRa): 2.2%
- inhibition at 10 µM (ErbB4): -0.1%
- inhibition at 10 µM (DDR1): -0.7%
- inhibition at 10 µM (EphB3): 2.8%
- inhibition at 10 µM (c-KIT [2]): 7.8%
- inhibition at 10 µM (EphA7): 4.3%
- inhibition at 10 µM (KDR): -3.1%
- inhibition at 10 µM (PDGFRb): 4.2%
- inhibition at 10 µM (FLT4): 16.8%
- inhibition at 10 µM (INSRb): 10%
- inhibition at 10 µM (ErbB1): 8.7%
- inhibition at 10 µM (EphA5): 5%
- inhibition at 10 µM (IGF1R): 10.1%
- inhibition at 10 µM (EphB4): 22.7%
- inhibition at 10 µM (EphB2): 1.4%
- inhibition at 10 µM (c-KIT [3]): -1%
- inhibition at 10 µM (Fms/CSFR kinase): 1%
- inhibition at 10 µM (TrkA-P75): 13.7%
- inhibition at 10 µM [4]: 64%
